Reference: the supplement of paper PMC4862054
“And” between values parts separate entries of the source, which are not always exact repeats. Equal values may be shown once.

Experiments:
[1] = tested on: CAL-51; test: normalised viability (% of control), CellTiter-Blue; higher = more viable cells (about 100 = DMSO control); details: incubation time: 72 h
Procedure: (§1)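 DSRT, CellTiter-Blue viability, 72 h incubation. Signal is normalised to DMSO and benzethonium chloride controls. Value is the normalised response at dose 7.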

[2] = tested on: HDQ-P1; test: as above; details: incubation time: 72 h
Procedure: as §1

[3] = tested on: MDA-MB-453; test: as above; details: incubation time: 72 h
Procedure: as §1

[4] = tested on: CAL-85-1; test: as above; details: incubation time: 72 h
Procedure: as §1

[5] = tested on: DU-4475; test: as above; details: incubation time: 72 h
Procedure: as §1

[6] = tested on: CAL-148; test: as above; details: incubation time: 72 h
Procedure: as §1

[7] = tested on: CAL-85-1; test: drug sensitivity score (DSS), CellTiter-Glo (DSS (AUC-based score)); higher = stronger drug effect (viability inhibition or cytotoxicity); extreme values may be limits of the assay; details: incubation time: 72 h
Summary of the method: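 Using 20 µl of cell suspension per well, breast cancer cell lines were seeded into 384-well plates pre-loaded with compound at 5 concentrations in 10-fold steps across a compound-specific 10,000-fold range. Incubation lasted 72 h, after which CellTox Green fluorescence at 485/520 nm and then CellTiter-Glo luminescence, following 10 min at room temperature, were recorded. Each plate was normalised to 0.1 % DMSO and a positive kill control before the drug sensitivity score was derived from the area under the fitted dose-response curve.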

[8] = tested on: CAL-51; test: normalised viability (% of control), CellTiter-Blue; higher = more viable cells (100 = DMSO, 0 = benzethonium chloride kill control); details: incubation time: 72 h
Procedure: (§2)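 DSRT, CellTiter-Blue viability, 72 h incubation. Signal is normalised to DMSO and benzethonium chloride controls. Value is the normalised response at dose 1.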

[9] = tested on: HCC1937; test: as above; details: incubation time: 72 h
Procedure: as §2

[10] = tested on: HDQ-P1; test: as above; details: incubation time: 72 h
Procedure: as §2

[11] = tested on: MDA-MB-231; test: as above; details: incubation time: 72 h
Procedure: as §2

[12] = tested on: CAL-120; test: as above; details: 1 nM; incubation time: 72 h
Procedure: as §2

[13] = tested on: Hs578T; test: as above; details: incubation time: 72 h
Procedure: as §2

[14] = tested on: MDA-MB-468; test: as above; details: incubation time: 72 h
Procedure: as §2

[15] = tested on: MDA-MB-436; test: as above; details: incubation time: 72 h
Procedure: as §2

[16] = tested on: MDA-MB-453; test: as above; details: incubation time: 72 h
Procedure: as §2

[17] = tested on: CAL-85-1; test: as above; details: incubation time: 72 h
Procedure: as §2

[18] = tested on: DU-4475; test: as above; details: incubation time: 72 h
Procedure: as §2

[19] = tested on: MFM-223; test: as above; details: incubation time: 72 h
Procedure: as §2

[20] = tested on: CAL-148; test: as above; details: incubation time: 72 h
Procedure: as §2

[21] = tested on: SK-BR-3; test: as above; details: incubation time: 72 h
Procedure: as §2

[22] = tested on: BT-549; test: as above; details: incubation time: 72 h
Procedure: as §2

[23] = tested on: HCC1599; test: as above; details: incubation time: 72 h
Procedure: as §2

[24] = tested on: HCC1143; test: as above; details: 1 nM; incubation time: 72 h
Procedure: as §2

[25] = tested on: BT-474; test: as above; details: 0.1 nM; incubation time: 72 h
Procedure: as §2

SMILES	normalised viability [1]	normalised viability [2]	normalised viability [3]	normalised viability [4]	normalised viability [5]	normalised viability [6]	drug sensitivity score [7]	further results
O=C1c2c(O)ccc(O)c2C(=O)c2c(NCCNCCO)ccc(NCCNCCO)c21 [Mitoxantrone] (100 nM)	31.2%	74.2%	71.3%	63.4%	13%	25.1%		
Nc1ccccc1NC(=O)c1ccc(CNc2nccc(-c3cccnc3)n2)cc1 [Mocetinostat] (1000 nM)	77.8%	90.1%	41.6%	68.7%	39.2%	65.5%		
COc1nc(N)nc2c1ncn2[C@@H]1O[C@H](CO)[C@@H](O)[C@@H]1O [Nelarabine]							0	normalised viability ([8]; 1 nM): 102% and 99.3%; normalised viability ([9]; 1 nM): 94.7% and 81.3%; normalised viability ([10]; 1 nM): 77.2% and 91.2%; normalised viability ([11]; 1 nM): 93.7% and 78.7%; normalised viability [12]: 101% and 102%; normalised viability ([13]; 1 nM): 99.1% and 107%; normalised viability ([14]; 1 nM): 103% and 92.2%; normalised viability ([15]; 1 nM): 98.1% and 89.7%; normalised viability ([16]; 1 nM): 101% and 80.4%; normalised viability ([17]; 1 nM): 105% and 107%; normalised viability ([18]; 1 nM): 109% and 118%; normalised viability ([19]; 1 nM): 97.6% and 107%; normalised viability ([20]; 1 nM): 101% and 110%; normalised viability ([21]; 1 nM): 90% and 95.9%; normalised viability ([22]; 1 nM): 92% and 96.5%; normalised viability ([23]; 1 nM): 121% and 119%; normalised viability [24]: 105% and 98.5%
COc1nc(N)nc2c1ncn2[C@@H]1O[C@H](CO)[C@@H](O)[C@@H]1O [Nelarabine] (1000 nM)	96.7% and 110%	76.9% and 92.7%	101% and 89.3%	101% and 98.4%	103% and 110%	102% and 122%		
Cc1ccc(Nc2nccc(N(C)c3ccc4c(C)n(C)nc4c3)n2)cc1S(N)(=O)=O [Pazopanib] (1000 nM)	84.2%	99.8%	68.8%	87.6%	107%	85.6%		
CS(=O)(=O)N1CCN(Cc2cc3nc(-c4cccc5[nH]ncc45)nc(N4CCOCC4)c3s2)CC1 [Pictilisib]							8.59	
O=C(NC[C@H](O)CO)c1ccncc1Nc1ccc(I)cc1F [Pimasertib]							8.66	
O=C(CCBr)N1CCN(C(=O)CCBr)CC1 [Pipobroman] (1000 nM)	114%	91.2%	93.4%	88.8%	98.1%	95.5%		
C[C@]12C=CC(=O)C=C1CC[C@@H]1[C@@H]2[C@@H](O)C[C@@]2(C)[C@H]1CC[C@]2(O)C(=O)CO [Prednisolone] (1000 nM)	90.3%	113%	76.9%	101%	119%	109%		
Cn1cc(CNCC2CCN(c3ncc(C(=O)NO)cn3)CC2)c2ccccc21 [Quisinostat]							16.4	
CC(C)N(CCCNC(=O)Nc1ccc(C(C)(C)C)cc1)C[C@H]1O[C@@H](n2cc(Br)c3c(N)ncnc32)[C@H](O)[C@@H]1O [SGC0946]							0	
CNC(=O)c1cc(Oc2ccc(NC(=O)Nc3ccc(Cl)c(C(F)(F)F)c3)cc2)ccn1 [Sorafenib] (100 nM)	106%	102% and 77.9%	90.8% and 101%	90.1% and 102%	94.2% and 117%	108%		
CCN(CC)CCNC(=O)c1c(C)[nH]c(/C=C2\C(=O)Nc3ccc(F)cc32)c1C [Sunitinib]							0	normalised viability ([8]; 0.1 nM): 111% and 96%; normalised viability ([9]; 0.1 nM): 91.7% and 88.2%; normalised viability ([10]; 0.1 nM): 100% and 93.2%; normalised viability ([11]; 0.1 nM): 82.2% and 85.6%; normalised viability ([13]; 0.1 nM): 104% and 115%; normalised viability ([14]; 0.1 nM): 94.7% and 98.5%; normalised viability ([15]; 0.1 nM): 98.4% and 105%; normalised viability ([16]; 0.1 nM): 99.7% and 100%; normalised viability ([17]; 0.1 nM): 89.3% and 104%; normalised viability ([18]; 0.1 nM): 101% and 89.2%; normalised viability ([19]; 0.1 nM): 99.6% and 109%; normalised viability [25]: 81% and 89.3%; normalised viability ([20]; 0.1 nM): 104% and 107%; normalised viability ([21]; 0.1 nM): 94.2% and 93.7%; normalised viability ([22]; 0.1 nM): 87.1% and 85%; normalised viability ([23]; 0.1 nM): 112% and 101%
CCN(CC)CCNC(=O)c1c(C)[nH]c(/C=C2\C(=O)Nc3ccc(F)cc32)c1C [Sunitinib] (100 nM)	115% and 98.3%	91.3% and 100%	94% and 94.8%	93.3% and 99.1%	109% and 86.6%	94.3% and 116%		
CC[C@@]1(O)C(=O)OCc2c1cc1n(c2=O)Cc2cc3c(CN(C)C)c(O)ccc3nc2-1 [Topotecan] (100 nM)	73.3%	102%	90.4%	85.7%	61.2%	45.5%		
